{"source": "patent US8519154B2", "about": "“Method for treatment of bronchial asthma” (Council of Scientific & Industrial Research, priority 2011, dated 2013)", "key": {"[1]": {"test_system": "OVA sensitized and challenged mice, lung sections", "assay": "Histological analysis of lung inflammation in mouse model of asthma", "format": "in vivo", "details": "H&E lung sections", "description": "To determine the effect of Compound I on airway inflammation, histopathological analysis of formalin fixed, paraffin embedded lung sections was performed. The excised lung portion was fixed in 10% buffered formalin. The fixed, paraffin embedded tissue were sectioned into 4 μm sections and stained with Hematoxylin & Eosin (H&E) to assess inflammation"}, "[2]": {"test_system": "rats", "assay": "Bile secretion", "format": "in vivo", "description": "Rats were anaesthetized with urethane (25% w/v; 0.6 ml/100 g bw, ip). A catheter was placed in the jugular vein for Compound I administration. Abdominal cavity was opened by midline incision and the common bile duct was cannulated to measure the biliary secretion which was collected over 2 hours duration. The total bile excreted was compared between control (untreated) and Compound I treated rats [Shetler, T., Bendele, A., Buening, M., Clemens, J., Colbert, W., Deldar, A., Helton, D., Mc Grath J., Shannon, H., Turk, J., Williams, P., General Pharmacology of Loracarbef in Animals. Arzneim-Forsch./Drug Res. 43 (1993) 1-6]."}, "[3]": {"test_system": "mice (Balb/c)", "assay": "28 d sub-acute oral toxicity (OECD TG 407)", "format": "in vivo", "details": "for Protein: normal 6-9; for SGOT: normal 19@25° C.; for Glucose: normal 55-130; for Bilirubin: normal <1.1; for SGPT: normal <22 @25° C.; for CMI DTH (% increase in paw vol): SRBC sensitized; for Total Ig IgG / Total Ig IgM: serum, ELISA; for % viability BM / % viability LN / % viability Spleen: trypan blue", "description": "The study was performed according to the guidelines laid in OECD TG 407. Young healthy adult mice (Balb/c) weighing between 28 to 35 g were employed and randomly assigned to the control and treatment groups and kept in their cages for at least five days prior to the start of the treatment to allow for acclimatisation to the laboratory conditions. 10 animals (five female and five male) were used at each dose level. Local standards of laboratory animal care were maintained. The temperature in the experimental animal room was maintained at 24° C.±3° C. and the relative humidity between 40 to 60% with 12 hours artificial light and 12 hours dark photoperiod. For feeding, conventional sterile pellet diets (Nay Chetan) with an unlimited supply of RO drinking water was given. A sample of the diet was retained until finalisation of the report. Animals were housed in small groups of 5 of the same sex.\nBlunt ended canula was used for gavaging. During the period of administration of Compound I, the animals are observed closely (30 minutes cage side observation), each day for signs of toxicity till the day of sacrifice. Weights of animals and measurements of food consumption were made once in a week.\nExperimental animals were sacrificed on day 29. Before sacrifice, blood was drawn from the retro-orbital sinus of mice with the help of heparinised capillary tubes and split in to two parts. Part taken in tubes containing EDTA was used for hematological studies with the help of Automatic Hematology Analyzer (Medonic). The other part was allowed to clot for 2 h and serum separated by centrifugation at 3000 rpm for 5 min, and subsequently used for clinical biochemistry and immunoglobuling profiling. Post sacrifice, the individual organs were dissected out, weighed and percentage relative organ weights determined. Spleen, lymphnode and bone marrow cell viability were judged by trypan blue dye exclusion test.\nThe blood left after the hematological studies were allowed to clot for 2 h and serum separated by centrifugation at 3000 rpm for 5 min and subsequently used for clinical biochemistry. Details of the clinical biochemistry are given below in table II.\nSerum concentrations of total IgG and IgM were measured by ELISA and Cell mediated immunity was measured in terms of % increase in paw volume in mice sensitized with SRBC.\nHistopathology was carried out on vital organs by fixing organs in 10% buffered formalin saline for 72 h followed by washing, dehydrating and embedding on paraffin wax. Paraffin blocks were sectioned (4-5μ tick), deparaffinised and stained with hematoxylin and eosin for viewing and photography under microscope (Nikion, Japan). Histopathology was performed in the control and high dose groups unless mentioned otherwise."}, "[4]": {"assay": "Lipophilicity", "format": "physicochemical"}}}
{"smiles": "COc1cc(C=O)cc2c1[nH]c1ccccc12", "note": "[Compound I, 1-methoxy-3-formyl-9H carbazole]", "values": [{"measurement": "perivascular and peribronchial inflammation", "setting": "[1]", "value": "reduced both perivascular and peribronchial inflammation in a dose dependent manner"}, {"measurement": "Bile (grams ± SEM) After", "setting": "[2]; 25 mg/kg i.v.", "value": "1.390 ± 0.06", "unit": "grams"}, {"measurement": "Bile (grams ± SEM) Before", "setting": "[2]; 25 mg/kg i.v.", "value": "1.285 ± 0.049", "unit": "grams"}, {"measurement": "Bile (grams ± SEM) After", "setting": "[2]; 50 mg/kg i.v.", "value": "1.125 ± 0.125", "unit": "grams"}, {"measurement": "Bile (grams ± SEM) Before", "setting": "[2]; 50 mg/kg i.v.", "value": "1.305 ± 0.145", "unit": "grams"}, {"measurement": "change in the mass of bile collected", "setting": "[2]; 25 and 50 mg/kg intravenously", "value": "no significant change in the mass of bile collected"}, {"measurement": "HGB", "setting": "[3]; 42 mg/kg, 28 d oral", "value": "9.47 ± 1.7", "unit": "g/dL"}, {"measurement": "PLT", "setting": "[3]; 42 mg/kg, 28 d oral", "value": "439 ± 76 × 10^3/mm^3"}, {"measurement": "RBC", "setting": "[3]; 42 mg/kg, 28 d oral", "value": "7.29 ± 1.46 ×10^6/mm^3"}, {"measurement": "WBC", "setting": "[3]; 42 mg/kg, 28 d oral", "value": "6.7 ± 1.2 10^3/mm^3"}, {"measurement": "Protein", "setting": "[3]; 42 mg/kg, 28 d oral", "value": "7.93 ± 1.33", "unit": "g/dL"}, {"measurement": "SGOT", "setting": "[3]; 42 mg/kg, 28 d oral", "value": "15.51 ± 3.6", "unit": "U/L"}, {"measurement": "Glucose", "setting": "[3]; 42 mg/kg, 28 d oral", "value": "127 ± 17", "unit": "mg/dL"}, {"measurement": "Bilirubin", "setting": "[3]; 42 mg/kg, 28 d oral", "value": "0.74 ± 0.08", "unit": "mg/dL"}, {"measurement": "SGPT", "setting": "[3]; 42 mg/kg, 28 d oral", "value": "18.54 ± 2.1", "unit": "U/L"}, {"measurement": "CMI DTH (% increase in paw vol)", "setting": "[3]; 47 mg/kg, 28 d oral", "value": "17.23 ± 4.4", "unit": "% increase in paw vol"}, {"measurement": "Total Ig IgG", "setting": "[3]; 47 mg/kg, 28 d oral", "value": "3.1 ± 0.85", "unit": "mg/mL"}, {"measurement": "Total Ig IgM", "setting": "[3]; 47 mg/kg, 28 d oral", "value": "1.48 ± 0.12"}, {"measurement": "% viability BM", "setting": "[3]; 47 mg/kg, 28 d oral", "value": "97.3 ± 3.5", "unit": "%"}, {"measurement": "% viability LN", "setting": "[3]; 47 mg/kg, 28 d oral", "value": "95.9 ± 5.4", "unit": "%"}, {"measurement": "% viability Spleen", "setting": "[3]; 47 mg/kg, 28 d oral", "value": "96.8 ± 4.8", "unit": "%"}, {"measurement": "glucose vs normal range", "setting": "[3]; 93 mg/kg", "value": "marginally higher than the normal range"}, {"measurement": "symptoms of toxicity", "setting": "[3]; 93 mg/kg body weight", "value": "no symptoms of toxicity"}, {"measurement": "HGB", "setting": "[3]; 93 mg/kg, 28 d oral", "value": "12.8 ± 2.4", "unit": "g/dL"}, {"measurement": "PLT", "setting": "[3]; 93 mg/kg, 28 d oral", "value": "426 ± 43 × 10^3/mm^3"}, {"measurement": "RBC", "setting": "[3]; 93 mg/kg, 28 d oral", "value": "8.52 ± 1.4 ×10^6/mm^3"}, {"measurement": "WBC", "setting": "[3]; 93 mg/kg, 28 d oral", "value": "5.9 ± 1.4 10^3/mm^3"}, {"measurement": "CMI DTH (% increase in paw vol)", "setting": "[3]; 93 mg/kg, 28 d oral", "value": "19.2 ± 6.3", "unit": "% increase in paw vol"}, {"measurement": "Protein", "setting": "[3]; 93 mg/kg, 28 d oral", "value": "8.73 ± 2.8", "unit": "g/dL"}, {"measurement": "SGOT", "setting": "[3]; 93 mg/kg, 28 d oral", "value": "12.9 ± 1.92", "unit": "U/L"}, {"measurement": "Glucose", "setting": "[3]; 93 mg/kg, 28 d oral", "value": "133 ± 13", "unit": "mg/dL"}, {"measurement": "Bilirubin", "setting": "[3]; 93 mg/kg, 28 d oral", "value": "0.17 ± 0.068", "unit": "mg/dL"}, {"measurement": "SGPT", "setting": "[3]; 93 mg/kg, 28 d oral", "value": "10.2 ± 2.9", "unit": "U/L"}, {"measurement": "Total Ig IgG", "setting": "[3]; 93 mg/kg, 28 d oral", "value": "3.6 ± 1.26", "unit": "mg/mL"}, {"measurement": "Total Ig IgM", "setting": "[3]; 93 mg/kg, 28 d oral", "value": "1.12 ± 0.33"}, {"measurement": "% viability BM", "setting": "[3]; 93 mg/kg, 28 d oral", "value": "96.8 ± 4.6", "unit": "%"}, {"measurement": "% viability LN", "setting": "[3]; 93 mg/kg, 28 d oral", "value": "96.5 ± 4.6", "unit": "%"}, {"measurement": "% viability Spleen", "setting": "[3]; 93 mg/kg, 28 d oral", "value": "95.4 ± 5.3", "unit": "%"}, {"measurement": "SGOT vs normal range", "setting": "[3]; 187 mg/kg", "value": "marginally higher than the normal range"}, {"measurement": "glucose level vs normal range", "setting": "[3]; 187 mg/kg", "value": "much higher than the normal range"}, {"measurement": "kidney histopathology", "setting": "[3]; 187 mg/kg", "value": "sign of necrosis in the corticular region"}, {"measurement": "signs of toxicity", "setting": "[3]; 187 mg/kg", "value": "Few signs of toxicity"}, {"measurement": "HGB", "setting": "[3]; 187 mg/kg, 28 d oral", "value": "13.2 ± 1.8", "unit": "g/dL"}, {"measurement": "PLT", "setting": "[3]; 187 mg/kg, 28 d oral", "value": "472 ± 65 × 10^3/mm^3"}, {"measurement": "RBC", "setting": "[3]; 187 mg/kg, 28 d oral", "value": "8.6 ± 0.67 ×10^6/mm^3"}, {"measurement": "WBC", "setting": "[3]; 187 mg/kg, 28 d oral", "value": "5.9 ± 4.1 10^3/mm^3"}, {"measurement": "CMI DTH (% increase in paw vol)", "setting": "[3]; 187 mg/kg, 28 d oral", "value": "17.4 ± 6.6", "unit": "% increase in paw vol"}, {"measurement": "Protein", "setting": "[3]; 187 mg/kg, 28 d oral", "value": "7.27 ± 0.85", "unit": "g/dL"}, {"measurement": "SGOT", "setting": "[3]; 187 mg/kg, 28 d oral", "value": "20.2 ± 0.85", "unit": "U/L"}, {"measurement": "Glucose", "setting": "[3]; 187 mg/kg, 28 d oral", "value": "183 ± 20", "unit": "mg/dL"}, {"measurement": "Bilirubin", "setting": "[3]; 187 mg/kg, 28 d oral", "value": "0.91 ± 0.057", "unit": "mg/dL"}, {"measurement": "SGPT", "setting": "[3]; 187 mg/kg, 28 d oral", "value": "15.83 ± 2.32", "unit": "U/L"}, {"measurement": "Total Ig IgG", "setting": "[3]; 187 mg/kg, 28 d oral", "value": "2.9 ± 0.56", "unit": "mg/mL"}, {"measurement": "Total Ig IgM", "setting": "[3]; 187 mg/kg, 28 d oral", "value": "1.04 ± 0.34"}, {"measurement": "% viability BM", "setting": "[3]; 187 mg/kg, 28 d oral", "value": "94.67 ± 4.9", "unit": "%"}, {"measurement": "% viability LN", "setting": "[3]; 187 mg/kg, 28 d oral", "value": "97.4 ± 3.9", "unit": "%"}, {"measurement": "% viability Spleen", "setting": "[3]; 187 mg/kg, 28 d oral", "value": "98.4 ± 4.4", "unit": "%"}, {"measurement": "DTH response vs sham treated control", "setting": "[3]; SRBC sensitized mice", "value": "insignificant changes"}, {"measurement": "acute oral LOAEL", "setting": "[3]; mice, 28 d oral", "value": 187, "unit": "mg/kg"}, {"measurement": "viability of bone marrow cells, splenocyte and lymph node lymphocyte vs sham control", "setting": "[3]; trypan blue dye exclusion test", "value": "No significant changes"}, {"measurement": "lipophilicity", "setting": "[4]", "value": "highly lipophilic"}]}
